Assay [1] addresses T1, LsrK (Salmonella typhimurium, UniProt Q8ZKQ6). Put plainly: LsrK inhibition assay (Kinase-Glo luminescence). The class given is biochemical. On the procedure:
(§1) To express LsrK with a 6 × His-tag at the C-terminus, the LsrK encoding gene of Salmonella typhimurium was amplified using primers carrying restriction endonuclease sites BamHI and XhoI. The amplified product was cloned into the expression vector pET-28a with a C-terminal 6 × His-tag and transfected into E. coli BL21 (DE3).
This assay was performed as previously described ([Gatta et al., 2019]), and the conditions were optimized. […] 74 purchased compounds were dissolved in dimethyl sulfoxide (20% v/v DMSO in reaction buffer) at a concentration of 2 mM. Briefly, 10 μL DPD, 10 μL LsrK, and 5 μL compound were added to a 96-well plate, and 25 μL ATP or 25 μL reaction buffer was added after 30 min incubation. The plate was incubated for 10 min at 37°C, then 50 μL of kit reagent was added, and the plate was incubated at 37°C for 15 min. The luminescence signal was measured using an Enspire 2300 microplate reader (PerkinElmer). Dose-response tests were carried out to verify the activity of hits chosen by primary screening. (200 μM–6.25 µM) ([Medarametla et al., 2018]). The inhibition percentage of each tested compound was determined as previously described and IC50 was calculated using four logistic parameters.

Assay [2] deals with T1, LsrK. As to the kind of experiment: SPR assay. The class given is binding.
Description: as §1
His-tagged LsrK was immobilized in the NTA sensor chip (GE Healthcare) in Biacore 8 K using a running buffer consisting of 1 × PBS-T and 5% v/v DMSO. Serially diluted small molecules (concentration range: 50 to 1.56 µM) were injected. Intermediate concentration (12.5 µM) was set as a repeat, and 1 × PBS-T with 5% v/v DMSO was set as the control. The association time was set to 120 s; the dissociation time was set to 130 s; and the flow rate was set to 30 μL/min. The resulting data were fitted to the affinity binding model using Biacore Evaluation Software (GE Healthcare).

Assay [3] relates to AI-2-mediated QS (lsr promoter luminescence, reporter strain WHQ02). As to the kind of experiment: Cell-based AI-2-mediated QS interference assay. The arrangement: species or system E. coli. The text has this: All chemicals were purchased from Sigma-Aldrich (St. Louis, MO, United States) unless otherwise stated. DPD was purchased from the […] ZZBIO Co., LTD. (Shanghai, China). The Kinase-Glo Max Luminescent Kinase Assay Kit was purchased from Promega (Madison, WI, United States). NTA sensor chips were purchased from GE Healthcare (Chicago, IL, United States). All compounds used as potential inhibitors of LsrK were purchased from Topscience Biotechnology Co. Ltd. (Shanghai, China). The QS reporter strain WHQ02 (E. coli BL21 ΔTolC pWHQ01) was donated by Huiqi Wen (Institute of Microbiology and Epidemiology, Academy of Military Sciences, Beijing, China). The plasmid pWHQ01 was constructed by cloning the lsr promoter and the luxCDABE luminescent gene. BamHI and XhoI were purchased from New England Biolabs (Ipswich, MA, United States). pET-28a was purchased from Novagen (Madison, WI, United States). Escherichia coli BL21 (DE3) cells were purchased from TransGen Biotech Co., LTD. (Beijing, China). A Ni-NTA column was purchased from Sangon Biotech (Shanghai, China). Sodium dodecyl sulfate-polyacrylamide gel electrophoresis (SDS-PAGE) and the Bradford Protein Assay Kit were purchased from Thermo Fisher Scientific (Waltham, MA, United States).
(§2) WHQ02 cultured overnight were diluted 1:100 in fresh LB supplemented with 100 μg/mL ampicillin and grown at 30°C and until the logarithmic phase (OD600 = 0.4–0.6). The bacterial culture was centrifuged at 4,000 × g for 5 min, and the pellet was resuspended in fresh LB medium to prepare a suspension of 2 McFarland standard and added to the 96-well plate. In the experimental group, 74 compounds (final concentrations ranging from 100 to 3.125 μM) were added to reach a total volume of 100 µL. In addition, 100 µL LB medium with an equal volume of DMSO (negative control) or 100 µL LB supplemented with 2% glucose and the same volume of DMSO (positive control) were added. Bacteria was cultured at 37°C with shaking for 3 h. The […] of WHQ02 is directly regulated by the lsr promoter, reflecting the strength of QS. The luminescence and OD600 were measured using an Enspire 2300 microplate reader (Perkin Elmer). To further study the effect of compounds on bacterial growth, overnight cultured WHQ02 was diluted 1:1,000 with LB medium and added to 96 well plate. Then, the compounds were added to a 96-well plate (final concentration: 100 µM) and diluted in a gradient. The same volume of DMSO was added to the control group. The plates were incubated at 37°C for 18 h. OD600 values were recorded using an Enspire 2300 microplate reader. The experiment was performed in triplicate.

For assay [4], the system named is WHQ02 (E. coli BL21 ΔTolC pWHQ01). As to the kind of experiment: Growth inhibition of the reporter strain (OD600). Format: cell-based. The following applies: 100 to 3.13 μM. The procedure: as §2
The 12 hits showing >60% LsrK inhibition were tested for QS inhibition using cell-based AI-2-mediated QS interference assay, as previously described [Baba et al., 2006]). To ensure that lower luminescence was the result of QS inhibition not the chemical toxicity or antibacterial activity, strain growth inhibition was assessed concurrently. […] Therefore, a parallel experiment to test the MIC of compounds at a low bacterial density was conducted, indirectly reflecting the potential growth inhibition to avoid false positives.

The inhibition is the relative decrease from the control value, in per cent. As a reminder, the Kd is the equilibrium constant for the complex coming apart.

Entries after “also recorded” stand apart in the source; their conditions may differ. Like-named read-outs stand apart in the source and are kept apart here.

T1 sequence (Q8ZKQ6 whole entry): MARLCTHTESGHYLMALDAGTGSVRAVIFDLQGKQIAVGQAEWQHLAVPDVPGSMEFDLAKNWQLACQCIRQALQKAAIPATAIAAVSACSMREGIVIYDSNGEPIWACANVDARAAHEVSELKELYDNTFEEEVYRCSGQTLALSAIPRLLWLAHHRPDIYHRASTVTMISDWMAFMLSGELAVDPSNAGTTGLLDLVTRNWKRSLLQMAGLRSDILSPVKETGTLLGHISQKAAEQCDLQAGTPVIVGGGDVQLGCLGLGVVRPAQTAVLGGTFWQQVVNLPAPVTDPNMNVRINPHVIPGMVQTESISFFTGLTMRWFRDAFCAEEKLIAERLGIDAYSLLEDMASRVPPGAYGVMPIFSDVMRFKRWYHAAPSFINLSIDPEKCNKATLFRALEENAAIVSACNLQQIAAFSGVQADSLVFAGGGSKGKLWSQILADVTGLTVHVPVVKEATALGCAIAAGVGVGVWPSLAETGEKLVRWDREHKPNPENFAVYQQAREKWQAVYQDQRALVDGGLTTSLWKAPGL

For the compound `NC(=O)c1cc(Cc2ccccc2)sc1NC(=O)C1C2CCC(C2)C1C(=O)O` (centres unmarked) [Y205-6768], the IC50 in assay [1] (50 μM ATP, mean ± SD, n = 3, read-out: IC50A) worked out at 8.73 ± 0.5 µM; in assay [1] (100 μM ATP, mean ± SD, n = 3, read-out: IC50B) it was 16.8 ± 0.76 µM; in assay [1] (150 μM ATP, mean ± SD, n = 3, read-out: IC50C), 26 ± 1.32 µM; in assay [3] (Escherichia coli, cell-based QS interference assay, WHQ02, mean ± SD, n = 3) it was 11.3 ± 0.7 µM. For the same compound, the inhibition at 200 µM in assay [1] (Table 1, hits at 200 μM with 100 μM ATP, mean ± SD, n = 3) came out at 101 ± 8.39%. Further, in assay [1] (from IC50 values at 50, 100 and 150 μM ATP), the “type of LsrK inhibition” value was “ATP-competitive inhibitors”. In addition, in assay [2] (His-tagged LsrK on NTA chip, 50 to 1.56 µM, affinity binding model), the affinity, expressed as Kd, was 8.49 µM. Moreover, the “LsrK specific binding (in words)” value in assay [2] (SPR) is recorded as “specifically bound to LsrK; also recorded: exhibited LsrK specific binding”. Further, in assay [3] (100 to 3.13 μM), the “AI-2 QS inhibitory activity (in words)” value was “significant QS inhibitory activities”. The “maximum AI-2 QS inhibition” value in assay [3] (100 to 3.13 μM) is recorded as > 80%. Also, the maximum growth inhibition in assay [4] is < 40%.

Values taken from paper PMC10244669, “Virtual screening–based discovery of AI-2 quorum sensing inhibitors that interact with an allosteric hydrophobic site of LsrK and their functional evaluation” (Frontiers in Chemistry, 2023).
